Measured values: patent US6982258B2, “Low-calcemic oxime analogs of 1α,25-dihydroxy vitamin D3” (Cytochroma Inc., priority 2001, dated 2006)

molecular target: T1, CYP24 (Homo sapiens, UniProt Q07973); test: CYP24 enzyme assay (induced HPK1A-ras cells); format: cell-based; conditions: ketoconazole as control standard
T1 construct: When the HPK1A-ras cells were 80-90% confluent, add 1 μL 10^−5 M 1,25(OH)2D3; endogenous in cells; host or cells: HPK1A-ras cells induced with 10^-8 M 1,25(OH)2D3
T1 sequence (Q07973 36-514): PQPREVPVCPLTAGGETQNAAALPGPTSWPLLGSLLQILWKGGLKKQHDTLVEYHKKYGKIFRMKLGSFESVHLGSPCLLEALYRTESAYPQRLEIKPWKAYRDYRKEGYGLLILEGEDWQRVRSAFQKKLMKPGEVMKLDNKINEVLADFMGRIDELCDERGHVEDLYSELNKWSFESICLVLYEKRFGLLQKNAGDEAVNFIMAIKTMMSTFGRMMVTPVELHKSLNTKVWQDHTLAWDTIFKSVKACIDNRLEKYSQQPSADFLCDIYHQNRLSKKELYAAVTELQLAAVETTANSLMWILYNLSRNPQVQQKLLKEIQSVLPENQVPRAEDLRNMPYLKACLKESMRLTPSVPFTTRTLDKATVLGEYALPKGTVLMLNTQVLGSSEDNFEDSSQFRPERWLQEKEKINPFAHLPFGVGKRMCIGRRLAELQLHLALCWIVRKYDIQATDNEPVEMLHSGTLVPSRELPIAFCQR
Description: CYP24 Enzyme Assay (Induced […] Cells)
• 1,25(OH)2D3 10^−5 M • [^3H]-1,25(OH)2D3 25,000 CPM/μL • HPK1A-ras cells • 48-well plate • Methanol • Dichlorimethane • Saturated KCI:KCI 30 g, H2O400 ml (ii) Procedure: • 1. Induction of HPK1A-ras cells (The day before assay) • When the HPK1A-ras cells were 80-90% confluent, add 1 μL 10^−5 M 1,25(OH)2D3 to 1 mL medium in the plate (final concentration is 10^−8 M). • 2. Preparation of cell suspension • After 18 to 20 hours induction, removed the medium and washed the cell twice with PBS. Then tripsinized the cells from plate, centrifuge (2,000 rpm, 5 min) and suspended cells pellet in DMEM medium+1% BSA. • Counted the cells and adjust cells density to 250,000/150 μL, add 150 μL cell suspension to each well in 48-well plate. (including 3 wells as no cell control, and 3 well cells without drug or inhibitor as control). • 3. Added 25 μL ketoconazole (final concentration 10^−5 M, 10^−6 M, 10^−7 M, 10^−8 M) or drugs into each designated well. Keep the plate in 37° C. for 10 min. • 4. Preparation of substrate • Took certain amount of DMEM+1% BSA medium (25*Well number+200)μL to a tube, added certain amount of ^3H-1,25(OH)2D3 (well number+2) μL and certain amount of 100 mM DPPD (well number/5)μL and mixed them by vortex. • 5. Incubation • Added 25 μL substrate to each well, incubated the plate at 37° C. for 3 hour. • Added 25 μL substrate to counting plate (2 well) as a total count. • 6. Lipid extraction and counting • Added 500 μL methanol to each well to stop the reaction, transfered them to tube • Added 250 μL dichloromethane and vortex. • Added 250 μL dichloromethane and 250 μL saturated KCI, and vortexed. • Centrifuged at 4000 rpm for 5 min. • Transfered 100 μL of aqueous phase (upper phase) to counting plastic counting plate. Added 600 μL of scintillation fluid to each well. Counted the plate in scintillation counter. • 7. Calculation enzyme activity • CPM of cell control after subtraction of CPM of NCC is as 100% enzyme activity. • Enzyme activity=(CPM in test compounds well−CPM in NCC well)/(CPM in Cell control−CPM in NCC well)* 100% • Dilution of Ketoconazole • Stock 10^−2 M
• Dilution of test compounds • Stock 10^−3 M

Structure (SMILES)	inhibition of CYP24 activity compared to ketoconazole
C=C1/C(=C\C=C2/CCC[C@]3(C)C([C@H](C)CCC/C(=N\O)C(C)(C)C)=CC[C@@H]23)C[C@@H](O)C[C@@H]1O [I(a)]	significantly greater inhibition of CYP24 than ketoconazole
C=C1/C(=C\C=C2/CCC[C@]3(C)C([C@H](C)CCC/C(=N\OC)C(C)(C)C)=CC[C@@H]23)C[C@@H](O)C[C@@H]1O [I(c)]	significantly greater inhibition of CYP24 than ketoconazole
C=C1/C(=C\C=C2/CCC[C@]3(C)C([C@H](C)CCC/C(=N\OCC)C(C)(C)C)=CC[C@@H]23)C[C@@H](O)C[C@@H]1O [I(e)]	significantly greater inhibition of CYP24 than ketoconazole
C=CCO/N=C(\CCC[C@@H](C)C1=CC[C@H]2/C(=C/C=C3/C[C@@H](O)C[C@H](O)C3=C)CCC[C@]12C)C(C)(C)C [I(g)]	significantly greater inhibition of CYP24 than ketoconazole
C=C1/C(=C\C=C2/CCC[C@]3(C)C([C@H](C)CCC/C(=N\Oc4ccccc4)C(C)(C)C)=CC[C@@H]23)C[C@@H](O)C[C@@H]1O [I(i)]	significantly greater inhibition of CYP24 than ketoconazole

test system: not listed separately; test: Calcium excretion (hypercalcemia assay, rat urine); format: in vivo; conditions: administered orally daily for one week
Description: As a measure of their safety in animals, compound of Formula I(a) was administered orally to rats daily for 1 week at a similar dose (0.5 microgram/Kg body weight) to calcitriol, using a procedure described previously (Posner G. H. et al. J. Med. Chem. 1999, 42, 3425-3435). A graph showing the effect of compound I(a) (indicated as BH 1625(NOH)) on calcium levels in rat urine in comparison to calcitriol (1α,25-Dihydroxy vitamin D3) is shown in FIG. 6.

Structure (SMILES)	levels of calcium in the urine
C=C1/C(=C\C=C2/CCC[C@]3(C)[C@@H]([C@H](C)CCCC(C)(C)O)CC[C@@H]23)C[C@@H](O)C[C@@H]1O [calcitriol, 1α,25-Dihydroxy vitamin D3]	significant increase in calcium levels in the urine
